Assay results reported in the supplement of paper PMC10883282.
± gives the standard deviation of the averaged measurements.

Tested on: SW684
Assay: relative viability vs DMSO control (72 h) (fraction); higher = more viable cells
In short: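 Serially diluted compound, 2.5 µl from source plates spanning 10 mM to 0.0002 mM, was added 24 h after sarcoma cell lines were seeded in 384-well plates at densities targeting 80–90% confluence. Plates then sat 72 h at 37 °C, 5% CO2, with 0.1% DMSO vehicle and a 5 µM positive control. Relative viability came from ATPLite as percent growth, averaged over up to triplicate wells, and was rescaled with 1 as full and 0 as none.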

SMILES	relative viability (0.00017 µM)	relative viability (0.00051 µM)	relative viability (0.00152 µM)	relative viability (0.00457 µM)	relative viability (0.01372 µM)	relative viability (0.04115 µM)	relative viability (0.1235 µM)	relative viability (0.3704 µM)	relative viability (1.111 µM)	relative viability (3.333 µM)	relative viability (10 µM)	relative viability (2 pM)	relative viability (5 pM)	relative viability (15 pM)	relative viability (50 pM)	relative viability (0.00014 µM)	relative viability (0.00041 µM)	relative viability (0.0012 µM)	relative viability (0.0037 µM)	relative viability (0.011 µM)	relative viability (200 fM)	relative viability (600 fM)
C[C@@H]1CCN(C(=O)CC#N)C[C@@H]1N(C)c1ncnc2[nH]ccc12 [Tofacitinib]	1.2 ± 0.035	1.24 ± 0.023	1.2 ± 0.004	1.23 ± 0.028	1.215 ± 0.012	1.192 ± 0.0029	1.19 ± 0.018	1.22 ± 0.031	1.11 ± 0.021	1.1 ± 0.015	0.943 ± 0.029	–	–	–	–	–	–	–	–	–	–	–
CC[C@H](Nc1ncnc2[nH]cnc12)c1nc2cccc(F)c2c(=O)n1-c1ccccc1 [Idelalisib]	1.18 ± 0.064	1.22 ± 0.025	1.18 ± 0.07	1.23 ± 0.045	1.02 ± 0.08	0.946 ± 0.023	0.875 ± 0.049	0.772 ± 0.049	0.658 ± 0.053	0.6 ± 0.014	0.513 ± 0.017	–	–	–	–	–	–	–	–	–	–	–
COc1cc2nccc(Oc3ccc(NC(=O)Nc4cc(C)on4)c(Cl)c3)c2cc1OC [Tivozanib]	1.17 ± 0.059	1.16 ± 0.028	1.19 ± 0.096	1.19 ± 0.054	1.16 ± 0.042	1.122 ± 0.0093	1.15 ± 0.027	1.23 ± 0.066	1.25 ± 0.092	1.12 ± 0.054	0.918 ± 0.037	–	–	–	–	–	–	–	–	–	–	–
COc1cc2c(cc1O)CCN[C@]21CS[C@@H]2c3c(OC(C)=O)c(C)c4c(c3[C@H](COC1=O)N1[C@@H]2[C@H]2c3c(cc(C)c(OC)c3O)C[C@@H]([C@@H]1O)N2C)OCO4 [Trabectedin]	–	–	–	–	–	–	–	–	–	–	–	1.22 ± 0.037	1.2 ± 0.027	1.22 ± 0.047	1.18 ± 0.06	1.2 ± 0.045	1.1605 ± 0.00091	0.64 ± 0.054	0.811 ± 0.043	0.84 ± 0.038	1.17 ± 0.051	1.2 ± 0.071
N#CC[C@H](C1CCCC1)n1cc(-c2ncnc3[nH]ccc23)cn1 [Ruxolitinib]	0.985 ± 0.022	1.062 ± 0.005	1.03 ± 0.017	1.04 ± 0.072	0.991 ± 0.028	0.976 ± 0.035	0.978 ± 0.023	0.9518 ± 0.0033	0.912 ± 0.032	0.915 ± 0.036	0.777 ± 0.012	–	–	–	–	–	–	–	–	–	–	–
Cc1cc(C)c(/C=C2\C(=O)Nc3ccccc32)[nH]1 [Semaxanib]	0.981 ± 0.022	0.962 ± 0.03	0.994 ± 0.026	0.935 ± 0.018	0.917 ± 0.02	0.8931 ± 0.0076	0.901 ± 0.046	0.923 ± 0.029	0.932 ± 0.06	0.902 ± 0.072	0.812 ± 0.017	–	–	–	–	–	–	–	–	–	–	–
O=C(Cc1ccc(-c2ccc(OCCN3CCOCC3)cc2)cn1)NCc1ccccc1 [KX2-391]	1.13 ± 0.039	1.15 ± 0.03	1.18 ± 0.014	1.182 ± 0.011	1.15 ± 0.025	1.04 ± 0.073	0.77 ± 0.02	0.696 ± 0.027	0.751 ± 0.024	0.762 ± 0.044	0.734 ± 0.033	–	–	–	–	–	–	–	–	–	–	–
COc1cc2c(Oc3ccc4[nH]c(C)cc4c3F)ncnc2cc1OCCCN1CCCC1 [Cediranib]	1.18 ± 0.024	1.17 ± 0.076	1.17 ± 0.03	1.17 ± 0.059	1.16 ± 0.033	1.169 ± 0.011	1.15 ± 0.029	1.19 ± 0.033	1.2 ± 0.035	1.19 ± 0.039	0.987 ± 0.058	–	–	–	–	–	–	–	–	–	–	–
CO[C@H]1C[C@@H]2CC[C@@H](C)[C@@](O)(O2)C(=O)C(=O)N2CCCC[C@H]2C(=O)O[C@H]([C@H](C)C[C@@H]2CC[C@@H](OP(C)(C)=O)[C@H](OC)C2)CC(=O)[C@H](C)/C=C(\C)[C@@H](O)[C@@H](OC)C(=O)[C@H](C)C[C@H](C)/C=C/C=C/C=C/1C [Ridaforolimus]	1.14 ± 0.081	1.11 ± 0.065	1.07 ± 0.021	0.971 ± 0.07	0.896 ± 0.043	0.862 ± 0.026	0.839 ± 0.033	0.846 ± 0.049	0.833 ± 0.025	0.791 ± 0.045	0.749 ± 0.068	–	–	–	–	–	–	–	–	–	–	–
Cc1cnc(Nc2ccc(OCCN3CCCC3)cc2)nc1Nc1cccc(S(=O)(=O)NC(C)(C)C)c1 [Fedratinib]	1.12 ± 0.04	1.16 ± 0.04	1.17 ± 0.081	1.16 ± 0.021	1.15 ± 0.047	1.13 ± 0.038	1.1 ± 0.029	1 ± 0.023	0.666 ± 0.04	0.399 ± 0.018	0.0027	–	–	–	–	–	–	–	–	–	–	–
Cn1cc(-c2cc3c(N4CCN(c5ncc([C@@](C)(N)c6ccc(F)cc6)cn5)CC4)ncnn3c2)cn1 [Avapritinib]	1.058 ± 0.0041	1.04 ± 0.013	1.07 ± 0.036	1.05 ± 0.031	1.05 ± 0.035	1.01 ± 0.017	1.09 ± 0.064	1.06 ± 0.034	1.02 ± 0.021	1.03 ± 0.03	0.95 ± 0.038	–	–	–	–	–	–	–	–	–	–	–
CN1CCN(c2ccc3nc(-c4c(N)c5c(F)cccc5[nH]c4=O)[nH]c3c2)CC1 [Dovitinib]	1.12 ± 0.039	1.17 ± 0.013	1.17 ± 0.033	1.15 ± 0.037	1.18 ± 0.028	1.15 ± 0.038	1.11 ± 0.037	1.138 ± 0.01	0.977 ± 0.034	0.656 ± 0.019	0.294 ± 0.038	–	–	–	–	–	–	–	–	–	–	–
